Assay results published in ChEMBL document CHEMBL1201862, “PubChem BioAssay data set” (2004).
Activity calls are given as the source filed them.

Experiments:
Exodeoxyribonuclease V = Exodeoxyribonuclease V (Escherichia coli (strain K12), UniProt P04993+P07648+P08394); test: RecBCD inhibition via phage-restricted bacterial growth – absorbance, V66 E. coli, mutant T4 phage, counter-screen for AddAB inhibitor project, dose response (AID 492957); assay type: functional, cell-based, Escherichia coli str. K-12 substr. MG1655
Chain of Exodeoxyribonuclease V (P04993 whole entry): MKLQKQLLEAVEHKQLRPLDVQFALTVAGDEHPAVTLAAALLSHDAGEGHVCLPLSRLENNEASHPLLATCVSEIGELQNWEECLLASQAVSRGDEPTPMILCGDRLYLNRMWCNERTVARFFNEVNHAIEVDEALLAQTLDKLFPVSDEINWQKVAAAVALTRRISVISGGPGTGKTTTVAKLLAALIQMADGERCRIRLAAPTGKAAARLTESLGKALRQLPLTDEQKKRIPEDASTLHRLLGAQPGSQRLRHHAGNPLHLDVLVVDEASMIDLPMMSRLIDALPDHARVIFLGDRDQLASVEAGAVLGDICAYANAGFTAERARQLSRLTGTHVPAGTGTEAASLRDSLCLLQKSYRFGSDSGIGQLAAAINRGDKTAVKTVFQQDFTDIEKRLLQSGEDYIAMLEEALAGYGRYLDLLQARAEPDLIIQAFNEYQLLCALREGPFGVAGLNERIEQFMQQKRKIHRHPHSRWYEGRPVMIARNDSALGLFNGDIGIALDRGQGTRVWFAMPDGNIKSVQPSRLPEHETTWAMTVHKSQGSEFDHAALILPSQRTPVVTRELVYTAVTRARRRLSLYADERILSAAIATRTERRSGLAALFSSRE
Chain of Exodeoxyribonuclease V (P07648 whole entry): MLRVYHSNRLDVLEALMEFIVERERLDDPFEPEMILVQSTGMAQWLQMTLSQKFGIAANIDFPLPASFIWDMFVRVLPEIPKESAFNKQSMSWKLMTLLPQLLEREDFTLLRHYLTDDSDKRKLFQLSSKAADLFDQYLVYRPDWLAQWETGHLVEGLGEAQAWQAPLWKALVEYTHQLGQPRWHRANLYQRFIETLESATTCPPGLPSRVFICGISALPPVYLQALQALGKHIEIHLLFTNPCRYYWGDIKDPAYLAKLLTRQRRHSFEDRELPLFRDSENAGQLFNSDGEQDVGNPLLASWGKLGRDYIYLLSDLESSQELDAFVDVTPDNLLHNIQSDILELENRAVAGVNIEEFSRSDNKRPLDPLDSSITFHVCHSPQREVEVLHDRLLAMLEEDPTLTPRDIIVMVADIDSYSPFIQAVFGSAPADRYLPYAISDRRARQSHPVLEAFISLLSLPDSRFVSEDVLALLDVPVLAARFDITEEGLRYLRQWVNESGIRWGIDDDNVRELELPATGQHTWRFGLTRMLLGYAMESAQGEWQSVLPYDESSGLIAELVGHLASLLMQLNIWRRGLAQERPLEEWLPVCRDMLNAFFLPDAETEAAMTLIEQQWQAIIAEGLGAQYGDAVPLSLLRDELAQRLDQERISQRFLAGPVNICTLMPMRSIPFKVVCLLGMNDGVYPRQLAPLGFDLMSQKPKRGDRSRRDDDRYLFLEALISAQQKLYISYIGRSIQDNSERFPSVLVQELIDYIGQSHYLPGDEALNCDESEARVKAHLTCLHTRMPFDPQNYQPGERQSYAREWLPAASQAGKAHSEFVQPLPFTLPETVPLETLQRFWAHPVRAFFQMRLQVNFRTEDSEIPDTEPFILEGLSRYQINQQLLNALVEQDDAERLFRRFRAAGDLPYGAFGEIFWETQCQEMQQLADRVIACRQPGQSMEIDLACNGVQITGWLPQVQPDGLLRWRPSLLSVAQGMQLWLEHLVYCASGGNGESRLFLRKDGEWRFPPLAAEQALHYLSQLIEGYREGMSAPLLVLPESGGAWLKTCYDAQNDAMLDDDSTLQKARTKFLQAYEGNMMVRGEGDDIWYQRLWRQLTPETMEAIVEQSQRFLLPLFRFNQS
Chain of Exodeoxyribonuclease V (P08394 whole entry): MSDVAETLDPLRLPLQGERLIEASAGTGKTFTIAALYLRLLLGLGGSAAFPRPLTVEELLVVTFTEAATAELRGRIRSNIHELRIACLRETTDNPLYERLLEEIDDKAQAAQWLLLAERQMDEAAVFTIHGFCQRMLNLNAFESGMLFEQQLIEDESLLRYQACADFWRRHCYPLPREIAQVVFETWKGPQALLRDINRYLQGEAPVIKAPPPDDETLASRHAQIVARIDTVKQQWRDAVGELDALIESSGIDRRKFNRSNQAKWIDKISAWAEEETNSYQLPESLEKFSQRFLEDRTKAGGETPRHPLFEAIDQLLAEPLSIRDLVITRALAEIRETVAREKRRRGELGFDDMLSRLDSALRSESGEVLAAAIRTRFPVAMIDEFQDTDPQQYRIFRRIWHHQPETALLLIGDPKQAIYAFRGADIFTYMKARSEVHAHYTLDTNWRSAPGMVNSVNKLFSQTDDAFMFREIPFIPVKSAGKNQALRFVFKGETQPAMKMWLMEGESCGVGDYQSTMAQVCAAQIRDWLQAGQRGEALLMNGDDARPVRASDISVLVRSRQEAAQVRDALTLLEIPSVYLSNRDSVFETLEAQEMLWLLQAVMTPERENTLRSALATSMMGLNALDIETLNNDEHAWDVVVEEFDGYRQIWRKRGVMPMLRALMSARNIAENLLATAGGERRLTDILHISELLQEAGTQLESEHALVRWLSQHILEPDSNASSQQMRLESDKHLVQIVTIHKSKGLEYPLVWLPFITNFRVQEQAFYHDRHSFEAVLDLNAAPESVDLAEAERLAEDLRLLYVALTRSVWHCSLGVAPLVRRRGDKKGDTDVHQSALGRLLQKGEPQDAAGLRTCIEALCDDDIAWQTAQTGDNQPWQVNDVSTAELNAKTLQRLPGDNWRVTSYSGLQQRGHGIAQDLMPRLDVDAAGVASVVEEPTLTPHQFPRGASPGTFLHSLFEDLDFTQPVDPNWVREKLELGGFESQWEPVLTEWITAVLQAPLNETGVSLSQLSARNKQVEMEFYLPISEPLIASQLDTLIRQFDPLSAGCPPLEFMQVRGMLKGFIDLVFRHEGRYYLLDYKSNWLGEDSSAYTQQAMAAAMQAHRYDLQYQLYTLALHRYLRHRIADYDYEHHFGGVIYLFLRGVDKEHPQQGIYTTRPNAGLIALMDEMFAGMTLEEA

[1] = Counterscreen for AddAB inhibitors: absorbance-based bacterial cell-based high throughput dose response assay for inhibitors of bacterial viability. [Related pubchem assays (depositor defined):AID435030, AID449728, AID449731, AID488942, AID488955, AID488956]; assay type: functional
Bcl-2-related protein A1 = biological target: T1, Bcl-2-related protein A1 (Mus musculus, UniProt Q07440); assay type: functional;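 also: confirmatory dose–response counterscreen on Bfl-1, used to check hits from a UBC13 polyubiquitin inhibitor campaign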
T1 sequence (Q07440 whole entry): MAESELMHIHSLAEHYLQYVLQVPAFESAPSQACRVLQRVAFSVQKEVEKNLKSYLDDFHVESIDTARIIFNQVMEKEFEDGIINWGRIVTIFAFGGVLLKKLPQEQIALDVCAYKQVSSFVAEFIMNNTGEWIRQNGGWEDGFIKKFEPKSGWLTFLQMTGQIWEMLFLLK

[2] = biological target: T2, Ubiquitin-conjugating enzyme E2 N (Homo sapiens, UniProt P61088); assay type: functional
T2 sequence (P61088 whole entry): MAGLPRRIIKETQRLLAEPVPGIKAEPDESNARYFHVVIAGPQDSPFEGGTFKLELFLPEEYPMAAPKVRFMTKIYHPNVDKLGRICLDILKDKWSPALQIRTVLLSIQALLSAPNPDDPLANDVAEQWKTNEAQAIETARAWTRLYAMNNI

[3] = biological target: T2, Ubiquitin-conjugating enzyme E2 N; assay type: functional; remark: listed apart in the source
Estrogen receptor beta = Estrogen receptor beta (Homo sapiens, UniProt Q92731); test: blockers of SRC-3 recruitment to ERβ – biochemical, ELISA, streptavidin-HRP readout, orthogonal assay, confirmation (AID 1060)
Chain of Estrogen receptor beta (Q92731 whole entry): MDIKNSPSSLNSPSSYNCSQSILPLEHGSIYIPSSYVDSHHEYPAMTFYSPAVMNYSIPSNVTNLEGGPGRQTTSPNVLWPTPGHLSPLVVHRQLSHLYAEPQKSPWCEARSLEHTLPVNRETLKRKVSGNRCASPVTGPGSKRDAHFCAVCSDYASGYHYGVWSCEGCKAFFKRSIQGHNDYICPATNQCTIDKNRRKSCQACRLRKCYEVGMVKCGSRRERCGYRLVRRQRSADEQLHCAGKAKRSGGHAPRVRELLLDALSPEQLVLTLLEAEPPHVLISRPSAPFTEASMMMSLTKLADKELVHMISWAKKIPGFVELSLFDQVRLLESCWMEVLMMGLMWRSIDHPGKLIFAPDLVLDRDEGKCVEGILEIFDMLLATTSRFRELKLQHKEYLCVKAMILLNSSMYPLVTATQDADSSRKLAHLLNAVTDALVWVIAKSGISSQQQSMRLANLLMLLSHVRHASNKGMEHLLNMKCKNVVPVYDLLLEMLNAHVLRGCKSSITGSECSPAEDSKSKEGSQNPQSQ

[4] = biological target: Intestinal-type alkaline phosphatase (Mus musculus, UniProt P24822); test: PubChem AID 488785; assay type: functional
Chain of Intestinal-type alkaline phosphatase (Mus musculus, UniProt P24822) (P24822 whole entry): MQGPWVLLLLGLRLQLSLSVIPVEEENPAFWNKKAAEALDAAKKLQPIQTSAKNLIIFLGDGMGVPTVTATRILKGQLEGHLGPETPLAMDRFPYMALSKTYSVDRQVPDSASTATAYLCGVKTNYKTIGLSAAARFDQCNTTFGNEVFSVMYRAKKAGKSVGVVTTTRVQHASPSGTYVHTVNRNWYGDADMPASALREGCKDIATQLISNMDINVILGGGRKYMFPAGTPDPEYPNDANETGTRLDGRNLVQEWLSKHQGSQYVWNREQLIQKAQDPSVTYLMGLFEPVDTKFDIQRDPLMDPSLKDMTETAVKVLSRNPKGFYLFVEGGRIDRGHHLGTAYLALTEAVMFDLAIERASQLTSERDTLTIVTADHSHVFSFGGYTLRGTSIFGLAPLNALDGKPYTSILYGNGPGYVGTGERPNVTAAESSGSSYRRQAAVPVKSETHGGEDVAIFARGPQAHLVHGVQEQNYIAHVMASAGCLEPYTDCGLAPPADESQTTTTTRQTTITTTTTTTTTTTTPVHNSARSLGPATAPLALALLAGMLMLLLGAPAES

[5] = biological target: T3, Alkaline phosphatase, tissue-nonspecific isozyme (Homo sapiens, UniProt P05186); test: TNAP enzyme inhibition by screening hits, dose response, selectivity assay for mouse IAP inhibitor project, biochemical, human TNAP, uHTS hits (AID 488906); assay type: functional
T3 sequence (P05186 whole entry): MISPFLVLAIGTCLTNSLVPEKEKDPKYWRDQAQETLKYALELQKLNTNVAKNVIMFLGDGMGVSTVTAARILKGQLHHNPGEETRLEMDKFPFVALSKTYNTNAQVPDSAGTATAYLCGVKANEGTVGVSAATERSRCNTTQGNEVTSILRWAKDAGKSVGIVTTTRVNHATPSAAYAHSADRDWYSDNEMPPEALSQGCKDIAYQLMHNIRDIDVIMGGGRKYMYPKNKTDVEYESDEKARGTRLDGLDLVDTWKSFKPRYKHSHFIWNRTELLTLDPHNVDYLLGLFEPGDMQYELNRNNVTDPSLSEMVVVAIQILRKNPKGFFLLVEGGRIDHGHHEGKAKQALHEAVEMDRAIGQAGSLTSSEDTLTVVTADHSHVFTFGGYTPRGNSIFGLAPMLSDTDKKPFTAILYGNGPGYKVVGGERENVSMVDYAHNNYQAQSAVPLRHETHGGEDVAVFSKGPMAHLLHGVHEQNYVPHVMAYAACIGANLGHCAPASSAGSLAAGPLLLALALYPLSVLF

[6] = biological target: Intestinal-type alkaline phosphatase (Homo sapiens, UniProt P09923); test: inhibition of human intestinal alkaline phosphatase – biochemical, dose response (AID 488876); assay type: functional
Chain of Intestinal-type alkaline phosphatase (Homo sapiens, UniProt P09923) (P09923 whole entry, the tested form may be a part): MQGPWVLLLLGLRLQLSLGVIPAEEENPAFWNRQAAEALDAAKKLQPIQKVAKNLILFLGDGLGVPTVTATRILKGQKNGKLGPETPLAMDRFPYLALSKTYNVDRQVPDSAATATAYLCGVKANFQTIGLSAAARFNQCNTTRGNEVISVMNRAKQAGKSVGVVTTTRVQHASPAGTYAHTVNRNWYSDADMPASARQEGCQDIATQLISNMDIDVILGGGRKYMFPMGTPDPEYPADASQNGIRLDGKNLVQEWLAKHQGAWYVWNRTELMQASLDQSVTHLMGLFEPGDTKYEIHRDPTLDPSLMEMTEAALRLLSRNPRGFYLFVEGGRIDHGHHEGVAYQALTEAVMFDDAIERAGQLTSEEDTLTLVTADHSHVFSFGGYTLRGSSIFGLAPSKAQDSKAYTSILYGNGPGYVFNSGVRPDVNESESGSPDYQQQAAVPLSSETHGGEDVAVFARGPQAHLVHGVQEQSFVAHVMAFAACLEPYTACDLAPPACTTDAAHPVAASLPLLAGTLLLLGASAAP

[7] = biological target: T4, Carboxy-terminal domain RNA polymerase II polypeptide A small phosphatase 1 (Homo sapiens, UniProt Q9GZU7); test: CTDSP1 inhibitors, concentration-response, biochemical, absorbance readout, ultra-high-throughput screen actives (AID 540297); assay type: functional
T4 sequence (Q9GZU7 whole entry): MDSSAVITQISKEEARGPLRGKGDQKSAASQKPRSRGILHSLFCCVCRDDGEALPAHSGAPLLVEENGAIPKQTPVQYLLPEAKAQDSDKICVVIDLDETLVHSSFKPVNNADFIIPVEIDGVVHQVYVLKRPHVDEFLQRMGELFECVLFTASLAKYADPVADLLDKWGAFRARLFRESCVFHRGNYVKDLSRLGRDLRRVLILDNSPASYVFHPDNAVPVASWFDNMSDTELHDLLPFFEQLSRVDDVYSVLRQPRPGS

[8] = biological target: Glyceraldehyde-3-phosphate dehydrogenase (Homo sapiens, UniProt P04406)
Chain of Glyceraldehyde-3-phosphate dehydrogenase (P04406 whole entry): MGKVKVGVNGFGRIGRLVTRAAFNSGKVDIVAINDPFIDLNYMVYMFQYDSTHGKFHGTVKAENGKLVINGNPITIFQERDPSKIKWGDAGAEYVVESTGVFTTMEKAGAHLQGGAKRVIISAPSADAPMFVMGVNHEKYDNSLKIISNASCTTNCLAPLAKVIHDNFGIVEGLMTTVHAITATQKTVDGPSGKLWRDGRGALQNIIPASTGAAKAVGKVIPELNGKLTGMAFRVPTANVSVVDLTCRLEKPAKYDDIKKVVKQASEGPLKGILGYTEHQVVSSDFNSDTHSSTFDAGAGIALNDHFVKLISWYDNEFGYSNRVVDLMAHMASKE

[9] = biological target: T3, Alkaline phosphatase, tissue-nonspecific isozyme; test: potency against alkaline phosphatase TNAP – biochemical, luminescent, dose response, SAR follow-up (AID 1056)
[10] = NIH-3T3 fibroblast cytotoxicity, dose response, cytotoxicity control, cell-based, fluorescence, Alamar Blue, secondary assay (AID 2327); assay type: functional;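 also: NIH-3T3 mouse fibroblasts cultured with fluconazole at 8 µg/mL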
[11] = fluconazole-exposed Candida albicans growth modulators – fluorescence, retest, confirmation (AID 2467); assay type: functional, cell-based
[12] = Luminescence Cell-Based Dose Retest to Confirm Inhibitors of Cancer Stem Cells. [Related pubchem assays (depositor defined):AID2717, AID2721]; assay type: functional; conditions: Homo sapiens
[13] = biological target: Heat shock protein HSP 90-alpha (Homo sapiens, UniProt P07900); assay type: functional, organism-based
H9c2 = test: cells; assay type: functional, cell-based; conditions: Rattus norvegicus, H9c2, Myocardium;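 also: confirmatory concentration-response retest of ultra-high-throughput screening hits for modulation of myocardial damage; cell death induced by hydrogen peroxide oxidative stress; compound pretreatment for 60 min then peroxide exposure for 2 h; potency is for protecting the cells against peroxide damage rather than for killing them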

In the case of CC(=O)Nc1ccc2nc(NC(=O)c3ccc([N+](=O)[O-])o3)sc2c1, the IC50 (Exodeoxyribonuclease V) was > 119 µM (inactive) and the IC50 [1] was > 119 µM (inactive).

For Cc1ccc(NC(=O)C[n+]2ccn(C3=C([O-])c4ccccc4C3=O)c2)cc1, the IC50 (Bcl-2-related protein A1) was > 20 µM (inactive), the IC50 [2] was 9.72 µM (active) and the IC50 [3] was 14.4 µM (active).

For CCOc1ccccc1N1CCN(S(=O)(=O)c2ccc3c4c(cccc24)C(=O)N3)CC1, the IC50 (Estrogen receptor beta) was 9.19 µM (not active), the IC50 [4] was 7.13 µM (active) and the IC50 [5] was 81.2 µM (active). For the same molecule, the IC50 [6] was > 100 µM (inactive) and the IC50 [7] was 7.47 µM (active).

With CC(C)CSc1nnc(N)[nH]1 the IC50 [8] was > 100 µM (not active) and the IC50 [9] was 60.8 µM (active).

In the case of O=C1c2ccccc2NC(c2ccc(-c3ccc(Br)cc3)o2)N1O (centres undefined), the EC50 [10] was > 150 µM (inconclusive), the EC50 [11] was > 38 µM (not active) and the IC50 (Exodeoxyribonuclease V) was > 119 µM (inactive). For the same molecule, the AC50 [12] was 4.35 µM (active), the IC50 [1] was > 119 µM (inactive) and the AC50 [13] was 6.74 µM (active). The IC50 (H9c2) was > 79 µM (inactive).
